Laboratory results published in patent US9255122B2, “Cholate and deoxycholate-based amphiphiles for membrane protein manipulation” (Wisconsin Alumni Research Foundation, priority 2013, dated 2016).

What was measured:
[1] = Critical micelle concentration (CMC) estimated with hydrophobic fluorescent dye diphenylhexatriene (DPH); format: physicochemical
Excerpt: The “Critical Micelle Concentration” (CMC) refers to the concentration of a detergent (e.g., an amphiphile as described herein) in an aqueous solution at which the detergent molecules self-assemble into micelles. Below the CMC, detergents are mostly monomeric; above the CMC, micelle concentration increases linearly with detergent concentration. The CMC is dependent upon many factors and is detergent-specific. The CMC of a detergent can be determined experimentally by measuring the solubilization of a water-insoluble dye or fluorophore while varying the concentration of detergent. A CMC may also be determined by measuring the diminution of the surface tension of an aqueous solution as a function of detergent concentration (CMCs determined by either method correlate with each other). The CMC is determined by extrapolating the plot of solubilization vs. concentration (or surface tension vs. concentration) in the two linear regions above and below the CMC. Where the two lines intersect is the CMC.
The Critical Micelle Concentrations (CMCs) of compounds of the invention can be determined by standard techniques known to those of skill in the art. For example, CMCs of CAO and DCAO can be determined by monitoring uptake of a fluorescent dye (e.g., a dye such as 1,6-diphenylhexatriene) with increasing detergent concentration, monitored by fluorescence spectroscopy.

LHI-RC complex [2] = tested on: T1, LHI-RC complex; experiment: Solubilization of LHI-RC complex from R. capsulatus intracytoplasmic membranes (pellet/supernatant absorbance spectra); set-up: species or system Rhodobacter capsulatus; conditions: for SY (%) Solubilization yield of LHI-RC complex from the membrane: 2×CMC for DPA-2, CAO, CAO-1, 10×CMC for other new agents, 50×CMC for DDM and LDAO, 32° C., 30 min
T1 construct: made in house; host or cells: Rhodobacter capsulatus U43[pUHTM86Bgl], intracytoplasmic membranes
Description: (§1) These two reagents were chosen as control agents for the assay. For the superassembly solubilization, the intracytoplasmic R. capsulatus membranes enriched in LHI-RC complex were treated with 10×CMC individual new agents except DPA-2; DPA-2 was tested at 2×CMC based on its high CMC value. On the other hand, conventional detergents (LDAO and DDM) were used at 50×CMC due to the small CMC value in terms of wt. %. The solubilized protein portion and insolubilized part containing cellular debris and insolubilized membranes were separated via ultracentrifugation and isolated as the supernatant and pellet, respectively. The absorption spectra of these two portions were taken to assess detergents efficacy on the protein solubilization and stabilization.
(§2) The solubilization and purification of the R. capsulatus superassembly were conducted according to the published protocol (Chae et al., ChemBioChem 2008, 9, 1706-1709). First, specialized photosynthetic membranes called intracytoplasmic membranes were obtained from an engineered strain of Rhodobacter (R.) capsulatus, U43[pUHTM86Bgl], lacking the light-harvesting complex II (LHII). The solubilization experiment began by thawing and homogenizing frozen aliquots of R. capsulatus membranes at room temperature. The solution was then incubated with mild agitation at 32° C. for 30 min. Subsequently, the solution was further incubated for 30 min after adding individual detergents (2×CMC for DPA-2, CAO and CAO-1, 10×CMC for DPA-1, […], DCAO and DCAO-2, 50×CMC for DDM and LDAO) into 1.0 mL solutions of R. capsulatus superassembly. The solution was then subjected to ultracentrifugation at 310,000 g at 4° C. for 30 min to remove membrane debris.
(§3) The spectra of solubilized supernatant and solubilized pellet were taken in a range from 650 nm to 950 nm after being homogenized. For the purification of the protein, detergent-solubilized samples were transferred into a new 1.7 mL microcentrifuge tube containing Ni-NTA resin (Qiagen, Inc.; Valencia, Calif.; pre-equilibriated and stored in an equal volume of buffer containing 10 mM Tris, pH 7.8, and 100 mM NaCl). Following one-hour incubation at 4° C. for protein binding, the resins were collected and washed twice with 0.5 mL of binding buffer (a pH 7.8 Tris solution containing DDM at 1×CMC). Purified protein solution were collected by eluting three times with 0.20 mL elution buffer solutions containing 1 M imidazole (otherwise, this buffer was identical to binding buffer; the pH of each solution was readjusted to pH=7.8) and diluted with 0.4 mL of the binding buffer to reach 1.0 mL solution. UV-Vis spectra of the superassembly purified in individual detergents were then taken to assess the stability of the protein.

LHI-RC complex [3] = tested on: T1, LHI-RC complex; experiment: Integrity of detergent-solubilized and Ni-NTA-purified LHI-RC complexes by UV-Vis absorption spectra; set-up: species or system Rhodobacter capsulatus; conditions: purified protein eluted at 1×CMC detergent
Excerpt: The presence of various types of cofactors such as bacteriochlorophyll and carotenoids embedded in the complexes, thereby providing a well-featured UV-Vis absorption spectrum, facilitates the assessment of the protein integrity for a set of detergents via optical spectrophotometry. The native conformation of the protein is represented by a very strong peak at 875 nm in its absorption spectrum, while the intact RC but denatured LHI, or denatured LHI and RC, produce rather intense peaks at ˜800 nm and ˜760 nm, respectively.
as §1
For the purification, the detergent-solubilized protein samples were subjected to a metal affinity column chromatography and eluted with the elution buffer containing 1M imidazole and 1×CMC individual detergents. The UV-Visible spectra of the resulting protein samples were taken to investigate the integrity of detergent-purified LHI-RC complexes.
as §2, §3

LHI-RC complex [4] = tested on: T1, LHI-RC complex; experiment: Long-term stability of LHI-RC complexes, absorbance ratio A875/A680 over 20-day incubation at room temperature; set-up: species or system Rhodobacter capsulatus; conditions: for native conformation retained by detergent-purified proteins: after 20 day-incubation at room temperature; for long-term stability of superassembly (A875/A680), in words: room temperature
Description: The favorable properties of CAO and DCAO in terms of membrane protein stabilization prompted further evaluation of these reagents' ability to stabilize protein superassemblies as a function of time. DDM-purified samples were diluted with solutions containing CAO or LDAO. […] Protein stability was monitored over time at room temperature by measuring absorbance ratios (A875/A680) (absorption at 680 nm arises from the oxidation of bacteriochlorophyll dissociated from LHI upon denaturation). […] Of note, DCAO was not evaluated in this long-term stability of the superassembly due to its high tendency to form a hydrogel at this high concentration.
R. capsulatus superassembly was purified in DDM according to the protocol described above. The DDM-purified sample was then diluted to the solutions containing individual detergents (CAO, CAO-1, DCAO, DCAO-2, DDM and LDAO). The dilution makes DDM concentration reached far below its CMC and the final individual detergent concentration at CMC+0.04 wt % or CMC+1.0 wt %. The spectra of individual detergents-solubilized LHI-RC complexes were taken in a range of 650 nm to 950 nm at regular intervals over 20 days during the incubation at room temperature. Protein integrity in each sample was assessed via changes in absorbance ratio (A875/A680) with time.
Similar criteria and protocols were used to judge the ability of amphiphiles to maintain solubilized and purified superassembly for extended periods. In this case, UV Vis-nearIR spectra were recorded at regular intervals. The degradation of the material could be monitored with the A875/A680 absorbance ratio, which decreased with time and sample integrity as the dominant 875 nm absorption of intact LHI disappeared and a 680 nm band appeared, indicating the presence of unbound, oxidized cofactors.

[5] = Water solubility and hydrogel formation of amphiphiles; format: physicochemical
Description: The amphiphiles prepared, except LDAO and DCAO, are water-soluble at up to 10 wt. %. […] DCAO was initially soluble, at approximately 1.0 wt. %, but tends to form a hydrogel over time at concentrations of greater than about 0.3 wt. %. Critical micelle concentration (CMC) values were estimated by using a hydrophobic fluorescent dye, diphenyhexatriene (DPH) (see Laible et al., Biochemistry 2003, 42, 1718-1730).
The CMC values were determined for CAO-1 (˜7.2 mM; ˜0.38 wt. %) and DCAO-2 (˜1.1 mM; ˜0.056 wt. %), which are similar to those of their parent compounds, CAO and DCAO, respectively (see Table 2.1 above). […] All of these cholate and deoxycholate-based agents preserved the native conformation of the superassembly during protein solubilization and purification processes.

[6] = estimated with DPH, Example 2, Table 2.1
[7] = at CMC+0.04 wt. % and CMC+1.0 wt. %, 20 days

T1 sequence (P11847 whole entry): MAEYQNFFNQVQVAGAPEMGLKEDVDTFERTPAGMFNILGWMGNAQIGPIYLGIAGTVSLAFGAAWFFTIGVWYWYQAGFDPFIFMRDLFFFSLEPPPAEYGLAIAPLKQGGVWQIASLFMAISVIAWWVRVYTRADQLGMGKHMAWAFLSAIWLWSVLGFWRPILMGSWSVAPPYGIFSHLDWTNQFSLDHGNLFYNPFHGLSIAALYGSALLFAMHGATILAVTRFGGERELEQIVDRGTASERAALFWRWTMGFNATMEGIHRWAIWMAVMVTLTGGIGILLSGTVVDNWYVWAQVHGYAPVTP
T1 sequence (P19057 whole entry, further chain): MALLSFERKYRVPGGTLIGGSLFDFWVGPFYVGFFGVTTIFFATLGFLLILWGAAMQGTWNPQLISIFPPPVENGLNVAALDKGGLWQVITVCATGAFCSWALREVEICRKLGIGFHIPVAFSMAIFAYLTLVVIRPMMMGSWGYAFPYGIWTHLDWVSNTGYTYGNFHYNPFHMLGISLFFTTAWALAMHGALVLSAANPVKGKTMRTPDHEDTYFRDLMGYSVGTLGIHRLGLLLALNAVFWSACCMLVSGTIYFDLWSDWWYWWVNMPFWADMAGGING
T1 sequence (P19056 whole entry, further chain): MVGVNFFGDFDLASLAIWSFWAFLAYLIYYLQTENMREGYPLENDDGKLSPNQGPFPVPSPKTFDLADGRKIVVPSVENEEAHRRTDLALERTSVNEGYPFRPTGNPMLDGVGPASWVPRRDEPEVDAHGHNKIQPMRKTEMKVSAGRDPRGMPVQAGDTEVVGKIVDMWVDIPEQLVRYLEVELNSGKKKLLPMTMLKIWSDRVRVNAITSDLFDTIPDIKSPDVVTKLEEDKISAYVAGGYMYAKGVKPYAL
T1 sequence (P02948 whole entry, further chain): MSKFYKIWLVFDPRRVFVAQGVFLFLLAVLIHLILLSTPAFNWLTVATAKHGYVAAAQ
T1 sequence (P02950 whole entry, further chain): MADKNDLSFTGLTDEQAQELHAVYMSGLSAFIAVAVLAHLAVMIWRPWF

Row | Structure (SMILES) | CMC [1, 6] | CMC (wt. %) [1, 6] | SY (%) Solubilization yield of LHI-RC complex from the membrane (LHI-RC complex [2]) | native structure of LHI-RC complexes after solubilization and purification (in words) (LHI-RC complex [3]) | CMC ([1]; Example 3, Table 3-2) | CMC (%) ([1]; Example 3, Table 3-2) | further results
1 | C[N+](C)([O-])CCCNC(=O)CC(C1CCCCC1)C1CCCCC1 [DPA-3, reference compound] | ~4.9 mM | ~0.17 wt. % | ~95% | protein degradation observed for DPA-3 was much less than that observed for DPA-1 |  |  | 
2 | C[C@H](CCC(=O)NCCC[N+](C)(C)CC(O)CS(=O)(=O)[O-])[C@H]1CC[C@H]2[C@@H]3[C@H](O)C[C@@H]4C[C@H](O)CC[C@]4(C)[C@H]3C[C@H](O)[C@]12C (stereo partly drawn) [CHAPSO, 3-[(3-cholamidopropyl)-dimethylammonio]-2-hydroxy-1-propanesulfonate, reference compound] |  |  | ~50% |  | 8 mM | 0.5% | native conformation retained by detergent-purified proteins (LHI-RC complex [4]): ~65%
3 | C[N+](C)([O-])CCCNC(=O)CC(c1ccccc1)c1ccccc1 [DPA-2, reference compound] | ~78 mM | ~2.5 wt. % | ~15% |  |  |  | 
4 | CCCCCCCCCCCCO[C@@H]1O[C@H](CO)[C@@H](O[C@H]2O[C@H](CO)[C@@H](O)[C@H](O)[C@H]2O)[C@H](O)[C@H]1O [DDM, n-dodecyl-β-D-maltoside, reference compound] | ~0.17 mM | ~0.0087 wt. % | ~70% |  |  |  | 
5 | C[C@H](CCC(=O)NCCC[N+](C)(C)CCCS(=O)(=O)[O-])[C@H]1CC[C@H]2[C@@H]3[C@H](O)C[C@@H]4C[C@H](O)CC[C@]4(C)[C@H]3C[C@H](O)[C@]12C [CHAPS, 3-[(3-cholamidopropyl)-dimethylammonio]-1-propanesulfonate, reference compound] | ~8.0 mM |  | ~50% | without structural degradation | 8 mM | 0.49% | native conformation retained by detergent-purified proteins (LHI-RC complex [4]): ~65%
6 | CCCCCCCCCCCC[N+](C)(C)[O-] [LDAO, lauryldimethylamine oxide, reference compound] | ~1.0 mM | ~0.023 wt. % | ~100% | native protein conformation mostly destroyed |  |  | extraction/solubilization of LHI-RC complexes (in words) (LHI-RC complex [2]): extracted the complexes almost quantitatively; water solubility (in words) [5]: insoluble in water
7 | CC(CCC(=O)N(C)CCC[N+](C)(C)[O-])C1CCC2C3C(O)CC4CC(O)CCC4(C)C3CC(O)C12C (stereo not drawn) [CAO-1] | ~7.2 mM | ~0.36 wt. % | ~20% |  |  |  | long-term stability of superassembly (A875/A680), in words (LHI-RC complex [4]; [7]): clearly superior to DDM
8 | CC(CCC(=O)NCCC[N+](C)(C)[O-])C1CCC2C3C(O)CC4CC(O)CCC4(C)C3CC(O)C12C (stereo not drawn) [CAO] | ~8.3 mM | ~0.42 wt. % | ~30% | fully retained as effectively as DDM | 7.1 mM | 0.36% | long-term stability of superassembly (A875/A680), in words (LHI-RC complex [4]; [7]): clearly superior to DDM; long-term stability of superassembly (A875/A680), in words (LHI-RC complex [4]; detergent at CMC+0.04 wt. %): more stable than DDM-solubilized protein; long-term stability of superassembly (A875/A680), in words (LHI-RC complex [4]; detergent at CMC+1.0 wt. %): efficacy difference between CAO and DDM was more prominent
9 | C[N+](C)([O-])CCCNC(=O)CC1(C2CCCC2)CCCCCC1 [DPA-1, 3-(2-(1-cyclopentylcycloheptyl)acetamido)-N,N-dimethylpropan-1-amine oxide] | ~13 mM | ~0.24 wt. % | ~100% | A similar trend was observed |  |  | 
10 | CC(CCC(=O)NCCC[N+](C)(C)[O-])C1CCC2C3CCC4CC(O)CCC4(C)C3CC(O)C12C (stereo not drawn) [DCAO] | ~1.3 mM | ~0.064 wt. % | ~70% | fully retained as effectively as DDM | 1.0 mM | 0.049% | CMC fold lower than that of CHAPS or CHAPSO [1]: approximately 8 fold; hydrogel formation (in words) [5]: did not form a hydrogel; concentration at which a hydrogel tends to form over time ([5]; in water): greater than 0.3 wt. %; water solubility ([5]; water-soluble at up to the stated concentration): approximately 1.0 wt. %; long-term stability of superassembly (A875/A680), in words (LHI-RC complex [4]; detergent at CMC+0.04 wt. %): more stable than DDM-solubilized protein
